This is an account of results in patent US10870647B2, “Imidazopyridine derivative, method for preparing same, and pharmaceutical composition containing same as active ingredient for preventing or treating cancer” (DAEGU-GYEONGBUK MEDICAL INNOVATION FOUNDATION, priority 2016, dated 2020).

Common to all, as to assay: Kinase selectivity, scanMAX Kinase assay panel (DiscoverX), % control at 1 uM
Assay type in all cases: binding

Experiment [1] has as its target T1, scanMAX Kinase assay panel (Homo sapiens, UniProt O96013).
T1 construct: purchased DiscoverX
To be noted: PAK4; 1 uM; read-out: Percent Control (%). The method in brief: (§1)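 Each kinase was first exposed to the test compound at 1 uM in DMSO. Signal was then normalised to positive and negative controls to give % control. Finally, any enzyme showing <35% control was judged inhibited.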

Experiment [2] has as its target T2, scanMAX Kinase assay panel (Homo sapiens, UniProt P00519, E255K).
T2 construct: purchased DiscoverX
Particulars: ABL1 (E255K)-phosphorylated; 1 uM; read-out: Percent Control (%). Summed up: as §1

The target of experiment [3] is T3, scanMAX Kinase assay panel (Homo sapiens, UniProt P00519, M351T).
T3 construct: purchased DiscoverX
Particulars: ABL1 (M351T)-phosphorylated; 1 uM; read-out: Percent Control (%). The method in brief:
as §1

The target in experiment [4] is T4, scanMAX Kinase assay panel (Homo sapiens, UniProt P25098).
T4 construct: purchased DiscoverX
T4 sequence (P25098 1-689): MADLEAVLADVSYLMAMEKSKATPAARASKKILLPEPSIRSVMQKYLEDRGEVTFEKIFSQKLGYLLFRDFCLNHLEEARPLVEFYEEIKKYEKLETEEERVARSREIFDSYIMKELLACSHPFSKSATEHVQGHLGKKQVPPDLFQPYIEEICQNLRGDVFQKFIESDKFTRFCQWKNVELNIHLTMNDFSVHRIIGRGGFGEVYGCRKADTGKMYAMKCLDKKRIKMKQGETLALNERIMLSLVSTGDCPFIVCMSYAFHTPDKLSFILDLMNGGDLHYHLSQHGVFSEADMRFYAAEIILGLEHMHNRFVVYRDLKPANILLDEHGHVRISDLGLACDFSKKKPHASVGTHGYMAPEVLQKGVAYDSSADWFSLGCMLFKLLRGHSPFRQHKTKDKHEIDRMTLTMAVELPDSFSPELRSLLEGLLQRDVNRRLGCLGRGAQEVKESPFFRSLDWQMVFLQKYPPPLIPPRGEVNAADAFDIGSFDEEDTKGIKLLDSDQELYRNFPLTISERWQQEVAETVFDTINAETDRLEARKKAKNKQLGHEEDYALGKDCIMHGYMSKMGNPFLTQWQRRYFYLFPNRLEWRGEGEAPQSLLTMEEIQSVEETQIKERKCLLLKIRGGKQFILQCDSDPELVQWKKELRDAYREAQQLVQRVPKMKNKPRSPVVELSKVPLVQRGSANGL
Particulars: GRK2; 1 uM; read-out: Percent Control (%). Summed up: as §1

For experiment [5], the target named is T5, scanMAX Kinase assay panel (Homo sapiens, UniProt P28482).
T5 construct: purchased DiscoverX
To be noted: ERK2; 1 uM; read-out: Percent Control (%). The method in brief: as §1

Experiment [6] addresses T6, scanMAX Kinase assay panel (Homo sapiens, UniProt Q02779).
T6 construct: purchased DiscoverX
To be noted: MLK2; 1 uM; read-out: Percent Control (%). The method in brief: as §1

Experiment [7] concerns the target T7, scanMAX Kinase assay panel (Homo sapiens, UniProt Q15831).
T7 construct: purchased DiscoverX
T7 sequence (Q15831 1-433): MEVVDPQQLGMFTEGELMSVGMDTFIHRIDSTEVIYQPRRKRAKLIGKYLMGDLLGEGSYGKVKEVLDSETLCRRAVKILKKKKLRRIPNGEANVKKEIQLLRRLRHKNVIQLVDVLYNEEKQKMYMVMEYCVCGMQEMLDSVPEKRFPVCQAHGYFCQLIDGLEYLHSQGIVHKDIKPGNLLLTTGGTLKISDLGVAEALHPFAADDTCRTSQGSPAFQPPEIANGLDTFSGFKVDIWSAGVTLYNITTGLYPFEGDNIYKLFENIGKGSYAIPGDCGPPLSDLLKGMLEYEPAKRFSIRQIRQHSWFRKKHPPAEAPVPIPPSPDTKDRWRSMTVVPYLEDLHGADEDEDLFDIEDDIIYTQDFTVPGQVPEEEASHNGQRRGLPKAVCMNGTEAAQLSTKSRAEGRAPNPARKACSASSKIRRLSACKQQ
Particulars: LKB1; 1 uM; read-out: Percent Control (%). Summed up:
as §1

In experiment [8] the target is T8, scanMAX Kinase assay panel (Homo sapiens, UniProt Q8N4C8).
T8 construct: purchased DiscoverX
To be noted: MINK; 1 uM; read-out: Percent Control (%). Summed up: as §1

Experiment [9] has as its target T9, scanMAX Kinase assay panel (Homo sapiens, UniProt Q8WU08).
T9 construct: purchased DiscoverX
Particulars: YANK1; 1 uM; read-out: Percent Control (%). The method in brief: as §1

In experiment [10] the target is T10, scanMAX Kinase assay panel (Homo sapiens, UniProt Q9H4B4).
T10 construct: purchased DiscoverX
Particulars: PLK3; 1 uM; read-out: Percent Control (%). The method in brief:
as §1

Experiment [11] has as its target T11, scanMAX Kinase assay panel (Homo sapiens, UniProt Q9UQB9).
T11 construct: purchased DiscoverX
T11 sequence (Q9UQB9 1-309): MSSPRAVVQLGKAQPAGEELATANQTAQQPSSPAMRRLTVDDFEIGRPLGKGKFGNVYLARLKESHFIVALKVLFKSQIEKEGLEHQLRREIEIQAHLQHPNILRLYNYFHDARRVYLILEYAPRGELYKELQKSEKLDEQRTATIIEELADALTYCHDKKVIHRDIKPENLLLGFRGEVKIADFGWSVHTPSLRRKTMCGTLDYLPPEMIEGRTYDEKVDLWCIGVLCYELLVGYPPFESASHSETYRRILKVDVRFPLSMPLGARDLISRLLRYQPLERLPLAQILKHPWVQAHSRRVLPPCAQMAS
Particulars: AURKC; 1 uM; read-out: Percent Control (%). The method in brief:
as §1

Experiment [12] addresses T12, scanMAX Kinase assay panel (Homo sapiens, UniProt Q9Y6M4).
T12 construct: purchased DiscoverX
Particulars: CSNK1G3; 1 uM; read-out: Percent Control (%). The method in brief:
as §1

Experiment [13] has as its system scanMAX Kinase assay panel. Particulars: 1 uM. The method in brief: as §1

T8 sequence (Q8N4C8 whole entry): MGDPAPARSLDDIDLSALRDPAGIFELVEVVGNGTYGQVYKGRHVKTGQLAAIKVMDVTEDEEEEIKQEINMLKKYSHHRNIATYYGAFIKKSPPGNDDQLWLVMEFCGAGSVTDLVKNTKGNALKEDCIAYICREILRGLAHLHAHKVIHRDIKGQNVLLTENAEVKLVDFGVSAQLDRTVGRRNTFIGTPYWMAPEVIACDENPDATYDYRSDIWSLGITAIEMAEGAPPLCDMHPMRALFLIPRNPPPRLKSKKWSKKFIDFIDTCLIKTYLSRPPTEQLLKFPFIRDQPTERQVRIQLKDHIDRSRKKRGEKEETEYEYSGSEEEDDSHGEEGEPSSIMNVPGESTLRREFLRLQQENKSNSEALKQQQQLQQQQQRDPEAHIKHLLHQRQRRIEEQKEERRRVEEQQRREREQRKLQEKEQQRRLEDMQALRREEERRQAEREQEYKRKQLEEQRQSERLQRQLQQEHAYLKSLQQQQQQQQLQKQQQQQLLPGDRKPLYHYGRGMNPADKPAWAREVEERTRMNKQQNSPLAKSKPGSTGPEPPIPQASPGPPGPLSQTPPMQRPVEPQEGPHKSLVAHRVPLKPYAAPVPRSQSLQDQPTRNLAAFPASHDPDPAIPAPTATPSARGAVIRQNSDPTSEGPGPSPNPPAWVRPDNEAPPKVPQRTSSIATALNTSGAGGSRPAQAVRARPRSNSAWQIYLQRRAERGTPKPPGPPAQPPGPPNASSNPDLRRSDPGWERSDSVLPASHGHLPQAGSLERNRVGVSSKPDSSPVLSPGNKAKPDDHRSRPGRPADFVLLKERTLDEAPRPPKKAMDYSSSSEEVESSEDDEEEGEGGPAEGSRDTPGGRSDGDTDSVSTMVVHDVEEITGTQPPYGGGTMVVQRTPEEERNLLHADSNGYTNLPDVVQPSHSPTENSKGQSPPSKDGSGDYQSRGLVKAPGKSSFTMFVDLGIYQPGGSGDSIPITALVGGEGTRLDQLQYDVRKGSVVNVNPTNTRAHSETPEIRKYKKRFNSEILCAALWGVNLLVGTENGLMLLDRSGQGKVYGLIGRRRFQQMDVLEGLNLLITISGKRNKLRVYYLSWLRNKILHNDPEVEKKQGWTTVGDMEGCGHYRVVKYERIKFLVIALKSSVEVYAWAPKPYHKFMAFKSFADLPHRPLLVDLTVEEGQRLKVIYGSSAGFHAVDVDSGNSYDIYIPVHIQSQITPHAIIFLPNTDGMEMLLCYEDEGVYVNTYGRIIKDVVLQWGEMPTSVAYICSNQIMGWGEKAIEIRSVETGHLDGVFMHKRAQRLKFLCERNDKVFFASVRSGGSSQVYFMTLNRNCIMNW
T9 sequence (Q8WU08 whole entry): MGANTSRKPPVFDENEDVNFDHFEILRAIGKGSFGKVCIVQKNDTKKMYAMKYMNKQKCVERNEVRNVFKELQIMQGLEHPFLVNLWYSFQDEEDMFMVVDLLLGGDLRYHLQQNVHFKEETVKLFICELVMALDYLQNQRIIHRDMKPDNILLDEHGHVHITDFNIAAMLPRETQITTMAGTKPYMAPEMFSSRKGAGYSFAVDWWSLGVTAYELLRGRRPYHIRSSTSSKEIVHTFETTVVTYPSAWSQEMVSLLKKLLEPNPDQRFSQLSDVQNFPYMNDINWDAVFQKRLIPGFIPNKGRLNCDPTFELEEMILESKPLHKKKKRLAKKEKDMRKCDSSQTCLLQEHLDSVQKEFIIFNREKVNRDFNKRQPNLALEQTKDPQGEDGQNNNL
T10 sequence (Q9H4B4 whole entry): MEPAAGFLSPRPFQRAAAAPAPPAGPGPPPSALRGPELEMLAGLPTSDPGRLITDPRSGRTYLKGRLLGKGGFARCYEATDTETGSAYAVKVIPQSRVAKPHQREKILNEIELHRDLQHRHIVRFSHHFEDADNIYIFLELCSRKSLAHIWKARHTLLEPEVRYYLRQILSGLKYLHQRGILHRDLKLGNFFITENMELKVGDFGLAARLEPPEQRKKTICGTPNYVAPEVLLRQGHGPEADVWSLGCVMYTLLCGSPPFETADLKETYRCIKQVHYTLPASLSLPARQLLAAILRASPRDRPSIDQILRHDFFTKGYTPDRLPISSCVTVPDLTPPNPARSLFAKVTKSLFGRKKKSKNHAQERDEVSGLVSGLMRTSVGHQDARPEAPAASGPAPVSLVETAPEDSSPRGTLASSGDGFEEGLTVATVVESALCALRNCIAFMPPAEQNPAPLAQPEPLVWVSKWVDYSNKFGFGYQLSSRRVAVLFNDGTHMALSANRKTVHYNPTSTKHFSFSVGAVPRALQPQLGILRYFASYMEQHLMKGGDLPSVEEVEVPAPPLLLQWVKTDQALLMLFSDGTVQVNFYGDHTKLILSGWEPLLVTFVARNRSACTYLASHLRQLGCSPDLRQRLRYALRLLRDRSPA
T1 sequence (O96013 whole entry): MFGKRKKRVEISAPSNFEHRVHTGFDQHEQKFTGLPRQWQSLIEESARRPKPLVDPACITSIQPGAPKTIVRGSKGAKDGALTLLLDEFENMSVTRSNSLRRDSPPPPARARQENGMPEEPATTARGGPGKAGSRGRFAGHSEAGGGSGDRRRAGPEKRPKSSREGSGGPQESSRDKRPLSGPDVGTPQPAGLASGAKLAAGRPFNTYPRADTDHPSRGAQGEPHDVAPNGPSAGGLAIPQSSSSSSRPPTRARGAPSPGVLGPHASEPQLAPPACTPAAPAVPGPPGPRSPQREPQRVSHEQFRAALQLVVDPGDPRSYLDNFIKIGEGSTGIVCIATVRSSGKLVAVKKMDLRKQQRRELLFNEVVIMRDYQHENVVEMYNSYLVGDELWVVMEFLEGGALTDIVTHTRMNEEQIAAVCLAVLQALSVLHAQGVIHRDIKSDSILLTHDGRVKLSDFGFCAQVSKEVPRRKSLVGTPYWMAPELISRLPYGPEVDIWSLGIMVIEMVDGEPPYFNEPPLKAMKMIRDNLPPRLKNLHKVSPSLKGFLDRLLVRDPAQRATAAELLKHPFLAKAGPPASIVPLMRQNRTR
T6 sequence (Q02779 whole entry): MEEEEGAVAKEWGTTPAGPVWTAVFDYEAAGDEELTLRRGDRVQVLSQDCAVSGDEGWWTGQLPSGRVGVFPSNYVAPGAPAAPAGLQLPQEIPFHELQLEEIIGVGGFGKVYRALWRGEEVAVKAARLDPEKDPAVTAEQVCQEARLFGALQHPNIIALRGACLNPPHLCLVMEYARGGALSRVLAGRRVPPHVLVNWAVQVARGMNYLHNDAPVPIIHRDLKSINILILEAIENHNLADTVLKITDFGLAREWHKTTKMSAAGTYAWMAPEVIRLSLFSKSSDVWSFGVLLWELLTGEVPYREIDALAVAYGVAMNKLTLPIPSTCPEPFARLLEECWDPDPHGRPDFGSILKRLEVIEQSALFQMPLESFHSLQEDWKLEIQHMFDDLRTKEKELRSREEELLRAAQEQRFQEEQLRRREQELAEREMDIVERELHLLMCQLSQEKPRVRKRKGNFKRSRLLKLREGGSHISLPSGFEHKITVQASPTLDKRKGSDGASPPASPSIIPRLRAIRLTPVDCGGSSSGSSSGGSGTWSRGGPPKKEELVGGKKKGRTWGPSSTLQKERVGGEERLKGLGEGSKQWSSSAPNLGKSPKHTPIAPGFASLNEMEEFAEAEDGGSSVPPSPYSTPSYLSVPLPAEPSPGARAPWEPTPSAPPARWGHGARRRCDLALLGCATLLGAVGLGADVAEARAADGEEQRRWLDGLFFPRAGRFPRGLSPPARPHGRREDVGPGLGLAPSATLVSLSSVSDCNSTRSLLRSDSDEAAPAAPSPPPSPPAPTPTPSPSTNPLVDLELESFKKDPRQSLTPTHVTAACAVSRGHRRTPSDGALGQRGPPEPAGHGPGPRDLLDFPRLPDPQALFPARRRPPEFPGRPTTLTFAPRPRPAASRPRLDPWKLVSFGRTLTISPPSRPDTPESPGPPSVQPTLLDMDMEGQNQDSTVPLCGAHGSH
T12 sequence (Q9Y6M4 whole entry): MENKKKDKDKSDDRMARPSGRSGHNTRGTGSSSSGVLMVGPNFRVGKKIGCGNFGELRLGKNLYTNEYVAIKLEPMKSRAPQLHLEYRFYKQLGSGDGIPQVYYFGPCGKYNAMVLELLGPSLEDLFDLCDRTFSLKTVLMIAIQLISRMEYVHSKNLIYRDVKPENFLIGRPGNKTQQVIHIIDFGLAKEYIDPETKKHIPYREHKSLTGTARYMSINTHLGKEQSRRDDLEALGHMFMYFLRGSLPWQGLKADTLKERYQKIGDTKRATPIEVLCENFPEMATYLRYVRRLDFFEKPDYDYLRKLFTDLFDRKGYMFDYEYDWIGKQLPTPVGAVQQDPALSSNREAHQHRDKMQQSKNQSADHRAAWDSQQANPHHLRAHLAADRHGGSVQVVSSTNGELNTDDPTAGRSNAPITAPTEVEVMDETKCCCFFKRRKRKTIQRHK
T5 sequence (P28482 whole entry): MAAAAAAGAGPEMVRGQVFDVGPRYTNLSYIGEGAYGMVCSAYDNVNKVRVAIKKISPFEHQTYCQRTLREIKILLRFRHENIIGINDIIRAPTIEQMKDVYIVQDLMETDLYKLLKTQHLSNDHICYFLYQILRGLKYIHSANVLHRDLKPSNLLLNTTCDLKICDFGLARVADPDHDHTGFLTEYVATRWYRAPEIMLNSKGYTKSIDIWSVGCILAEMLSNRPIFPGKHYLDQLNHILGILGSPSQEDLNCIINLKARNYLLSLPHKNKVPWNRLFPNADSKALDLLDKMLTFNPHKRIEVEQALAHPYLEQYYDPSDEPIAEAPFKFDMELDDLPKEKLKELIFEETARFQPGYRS

`Cc1ccc(C(=O)Nc2ccc(CN3CCN(C)CC3)c(C(F)(F)F)c2)cc1C#Cc1cnc2c(Nc3cnn(C)c3)cccn12` [Example 1, 4-methyl-3-((8-((1-methyl-1H-pyrazol-4-yl)amino)imidazo[1,2-a]pyridin-3-yl)ethynyl)-N-(4-((4-methylpiperazin-1-yl)methyl)-3-(trifluoromethyl)phenyl)benzamide]: the remaining binding at 1 µM came to 85% in [1]; 0% in experiment [2]; 1% in [3]; 84% in experiment [4]; 100% in [5]; 29% in experiment [6]. The remaining binding at 1 µM in [7] was 98%; in [8], 2%; in experiment [9] it was 69%; in experiment [10], 77%; in [11], 1%; in experiment [12], 100%. For the same compound, the “Percent Control (%)” value in experiment [13] (EGFR (L747-E749del, A750P)) is given as 3%; in experiment [13] (EGFR (L747-S752del, P753S)), 1%; in experiment [13] (EGFR (L747-T751del, Sins)), 2%; in experiment [13] (FLT3 (ITD)) it was 1%; in experiment [13] (FLT3 (ITD, D835V)), 20%; in [13] (FLT3 (ITD, F691L)), 2%.

As to `Cc1cn(-c2cc(NC(=O)c3ccc(C)c(C#Cc4cnc5c(Nc6cnn(C)c6)cccn45)c3)cc(C(F)(F)F)c2)cn1` [Example 12, 4-methyl-N-(3-(4-methyl-1H-imidazol-1-yl)-5-(trifluoromethyl)phenyl)-3-((8-((1-methyl-1H-pyrazol-4-yl)amino)imidazo[1,2-a]pyridin-3-yl)ethynyl)benzamide], the remaining binding at 1 µM in experiment [1] was determined as 98%; in experiment [2] it was 8%; in [3], 11%; in experiment [4], 100%; in [5], 92%; in experiment [6] it was 48%. Further, the remaining binding at 1 µM in [7] stood at 85%; in [8], 44%; in experiment [9], 98%; in experiment [10] it was 100%; in experiment [11], 48%; in [12], 84%. Moreover, the “Percent Control (%)” value in experiment [13] (EGFR (L747-E749del, A750P)) is 5%; in experiment [13] (EGFR (L747-S752del, P753S)), 6%; in experiment [13] (EGFR (L747-T751del, Sins)), 6%; in experiment [13] (FLT3 (ITD)), 4%; in experiment [13] (FLT3 (ITD, D835V)) it was 100%; in [13] (FLT3 (ITD, F691L)), 45%.

As to `Cc1ccc(NC(=O)C2(C(=O)Nc3ccc(F)cc3)CC2)cc1C#Cc1cnc2c(Nc3cnn(C(C)C)c3)cccn12` [Example 78], the remaining binding at 1 µM in experiment [1] was 100%; in [2], 84%; in experiment [3] it was 59%; in experiment [4], 96%; in experiment [5], 100%; in experiment [6], 94%. For the same compound, the remaining binding at 1 µM in experiment [7] came to 100%; in [8] it was 87%; in [9] it was 84%; in [10] it was 92%; in [11], 88%; in [12] it was 100%. Besides, the “Percent Control (%)” value in experiment [13] (EGFR (L747-E749del, A750P)) is 100%; in experiment [13] (EGFR (L747-S752del, P753S)), 87%; in [13] (EGFR (L747-T751del, Sins)) it was 100%; in experiment [13] (FLT3 (ITD)) it was 71%; in [13] (FLT3 (ITD, D835V)), 35%; in experiment [13] (FLT3 (ITD, F691L)), 31%.
